Literature values in PubChem BioAssay AID1259410 (Chemical Carcinogenesis Research Information System (CCRIS), 2018).

Tested on: rodent tumor promotion studies, tumor incidence
Assay: CCRIS tumor promotion studies

For CN(CCCC(=O)O)N=O, the outcome (Carcinogen: 1-NITROSO-1,3-DIMETHYLUREA, 13256-32-1, Doses [Carcinogen]: 10 MG/ML IN ETHYL ACETATE/CORN OIL (1:1) 1/WK FOR 2 WK, Doses [Promoter]: 0, 100 MG/L IN DRINKING WATER 5 D/WK FOR 40 WK BEGINNING 1/WK POST CARCINOGEN TREATMENT (STUDY DURATION: 43 WK), Route [Carcinogen]: GAVAGE, Route [Promoter]: ORAL, Species: RAT, Strain/Sex: F344/MALE) is given as “urinary bladder: transitional cell carcinoma” and the outcome (Carcinogen: NITROSOBIS(2-OXOPROPYL)AMINE, 60599-38-4, Doses [Carcinogen]: 12 MG/ML IN ETHYLACETATE/CORN OIL (1:1) 2/WK FOR 2 WK, Doses [Promoter]: 0, 100 MG/L IN DRINKING WATER 5 D/WK FOR 40 WK BEGINNING 1 WK POST CARCINOGEN TREATMENT (STUDY DURATION: 43 WK), Route [Carcinogen]: GAVAGE, Route [Promoter]: ORAL, Species: RAT, Strain/Sex: F344/MALE) is given as “colon: adenocarcinoma; urinary bladder: transitional cell carcinoma”.
For [Na+], the outcome (Carcinogen: N-BUTYL-N-(4-HYDROXYBUTYL)NITROSAMINE, 3817-11-6, Doses [Carcinogen]: 0.05% IN DRINKING WATER FOR 4 WK, Doses [Promoter]: 0, 2.34% IN DIET BEGINNING POST LAST CARCINOGEN DOSE AND CONTINUING FOR 32 WK (STUDY DURATION: 37 WK), Route [Carcinogen]: ORAL, Route [Promoter]: ORAL, Species: RAT, Strain/Sex: WISTAR/MALE) is listed as “urinary bladder: papilloma”, the outcome (Carcinogen: N-METHYL-N'-NITRO-N-NITROSOGUANIDINE, 70-25-7, Doses [Carcinogen]: 0.25 ML/10 G BW OF A 5 G/L DISTILLED WATER SOLUTION (7.5-8.8 MG/RAT) ONCE, Doses [Promoter]: 0, 10% IN DIET BEGINNING POST CARCINOGEN DOSE AND CONTINUING FOR STUDY DURATION (STUDY DURATION: 1 YR), Route [Carcinogen]: INTRAGASTRIC, Route [Promoter]: ORAL, Species: RAT, Strain/Sex: ACI/MALE) is listed as “forestomach: squamous carcinoma” and the outcome (Carcinogen: N-METHYL-N'-NITRO-N-NITROSOGUANIDINE, 70-25-7, Doses [Carcinogen]: 25 UG/ML IN DRINKING WATER FOR 25 WK, Doses [Promoter]: 0, 10% IN DIET FOR 26 WK BEGINNING 1 WK POST CARCINOGEN TREATMENT (STUDY DURATION: 52 WK), Route [Carcinogen]: ORAL, Route [Promoter]: ORAL, Species: RAT, Strain/Sex: WISTAR/MALE) is listed as “glandular stomach: adenocarcinoma”. For the same compound, the outcome (Carcinogen: N-METHYL-N'-NITRO-N-NITROSOGUANIDINE, 70-25-7, Doses [Carcinogen]: 100 PPM IN DRINKING WATER FOR 8 WK, Doses [Promoter]: 0, 5, 10% IN DIET FOR 82 WK BEGINNING POST CARCINOGEN TREATMENT (STUDY DURATION: 90 WK), Doses [Promoter]: 0, 5, 10% IN DIET FOR 82 WK BEGINNING POST CARCINOGEN TREATMENT (STUDY DURATION: 90 WK), Route [Carcinogen]: ORAL, Route [Promoter]: ORAL, Species: RAT, Strain/Sex: WISTAR/MALE) was “glandular stomach: adenoma or adenocarcinoma”, the outcome (Carcinogen: N-METHYL-N'-NITRO-N-NITROSOGUANIDINE, 70-25-7, Doses [Carcinogen]: 100 PPM IN DRINKING WATER FOR 10 WK, Doses [Promoter]: 0, 2.5, 5% IN DIET FOR 62 WK BEGINNING POST CARCINOGEN TREATMENT (STUDY DURATION: 72 WK), Doses [Promoter]: 0, 2.5, 5% IN DIET FOR 62 WK BEGINNING POST CARCINOGEN TREATMENT (STUDY DURATION: 72 WK), Route [Carcinogen]: ORAL, Route [Promoter]: ORAL, Species: RAT, Strain/Sex: WISTAR/MALE) was “stomach: adenocarcinoma” and the outcome (Carcinogen: N-[4-(5-NITRO-2-FURYL)-2-THIAZOLYL]FORMAMIDE, 24554-26-5, Doses [Carcinogen]: 0.2% IN DIET FOR 6 WK, Doses [Promoter]: 0, 1.34% IN PROLAB DIET FOR 72 WK BEGINNING POST CARCINOGEN TREATMENT (STUDY DURATION: 78 WK), Route [Carcinogen]: ORAL, Route [Promoter]: ORAL, Species: RAT, Strain/Sex: F344/MALE) was “urinary bladder: carcinoma, carcinoma and papilloma”.
In the case of CC(=O)[O-].CC(=O)[O-].[OH-].[OH-].[OH-].[OH-].[Pb+2].[Pb+2].[Pb+2], the outcome (Carcinogen: N-ETHYL-N-(2-HYDROXYETHYL)NITROSAMINE, Doses [Carcinogen]: 0.1% IN DRINKING WATER FOR 1 WK, Doses [Promoter]: 0.1% IN DIET FOR 35 WK, Route [Carcinogen]: ORAL, Route [Promoter]: ORAL, Species: RAT, Strain/Sex: F344/MALE) is given as “kidney: renal cell tumor” and the outcome (Carcinogen: N-ETHYL-N-(2-HYDROXYETHYL)NITROSAMINE, Doses [Carcinogen]: 500 PPM IN DIET FOR TWO WK, Doses [Promoter]: 1000 PPM IN DIET FOR 20 WK, Route [Carcinogen]: ORAL, Route [Promoter]: ORAL, Species: RAT, Strain/Sex: WISTAR) is given as “kidney: adenoma, adenocarcinoma”.
In the case of O=C(O)C(Cl)Cl, the outcome (Carcinogen: N-METHYL-N-NITROSOUREA, 684-93-5, Doses [Carcinogen]: 25 MG/KG IN STERILE SALINE ONCE, Doses [Promoter]: 0, 25 MMOL/L IN DRINKING WATER FOR 44 WK BEGINNING 2 WK POST CARCINOGEN DOSE (STUDY DURATION: 46 WK), Route [Carcinogen]: INTRAPERITONEAL, Route [Promoter]: ORAL, Species: MOUSE, Strain/Sex: B6C3F1/FEMALE) is listed as “liver: adenoma”, the outcome (Carcinogen: N-METHYL-N-NITROSOUREA, 684-93-5, Doses [Carcinogen]: 25 MG/KG ONCE AT 15 D OF AGE, Doses [Promoter]: 0, 20 NMOL/L IN DRINKING WATER FOR 31 WK BEGINNING AT 7 WK OF AGE (STUDY DURATION: 31 WK), Route [Carcinogen]: INTRAPERITONEAL, Route [Promoter]: ORAL, Species: MOUSE, Strain/Sex: B6C3F1/FEMALE) is listed as “liver: adenoma” and the outcome (Carcinogen: N-METHYL-N-NITROSOUREA, 684-93-5, Doses [Carcinogen]: 25 MG/KG ONCE AT 15 D OF AGE, Doses [Promoter]: 0, 20 NMOL/L IN DRINKING WATER FOR 52 WK BEGINNING AT 7 WK OF AGE (STUDY DURATION: 52 WK), Route [Carcinogen]: INTRAPERITONEAL, Route [Promoter]: ORAL, Species: MOUSE, Strain/Sex: B6C3F1/FEMALE) is listed as “liver: adenoma”.
For CCC(=O)Oc1ccc2c(c1)CC[C@@H]1[C@@H]2CC[C@]2(C)[C@@H](OC(=O)CC)CC[C@@H]12, the outcome (Carcinogen: 1,2-DIMETHYLHYDRAZINE, 540-73-8, Doses [Carcinogen]: 8 MG/KG BW 1/WK FOR 20 WK, Doses [Promoter]: 0, 0.1 ML OF A SOLUTION IN OLIVE OIL 1/WK FOR 30 WK ADMINISTERED 1 DAY PRIOR TO EACH CARCINOGEN DOSE AND CONTINUING FOR, Route [Carcinogen]: SUBCUTANEOUS, Route [Promoter]: SUBCUTANEOUS, Species: MOUSE, Strain/Sex: C3H/FEMALE) is listed as “uterus: sarcoma”.
In the case of CCCCCCCC/C=C\CCCCCCCC(=O)OC[C@@H](O)[C@H]1OC[C@H](O)[C@H]1O, the outcome (Carcinogen: 7,12-DIMETHYLBENZ(A)ANTHRACENE, Doses [Carcinogen]: TOP, Route [Carcinogen]: DERMAL, Route [Promoter]: DERMAL, Species: MOUSE, Strain/Sex: MALE) is listed as “integumentary system (skin)”.
For O=C1OC(O)C(C(Cl)Cl)=C1Cl (stereo not drawn), the outcome (Carcinogen: N-METHYL-N'-NITRO-N-NITROSOGUANIDINE [70-25-7], SODIUM CHLORIDE [7647-14-5], Doses [Carcinogen]: 100 PPM MNNG IN DRINKING WATER FOR 8 WK, 5% SODIUM CHLORIDE IN DIET FOR 8 WK (STUDY DURATION: 65 WK), Doses [Promoter]: 30 PPM IN DRINKING WATER FOR 53 WK BEGINNING POST LAST CARCINOGEN DOSE (STUDY DURATION: 65 WK), Route [Carcinogen]: ORAL, ORAL, Route [Promoter]: ORAL, Species: RAT, Strain/Sex: WISTAR/MALE) is listed as “glandular stomach: adenocarcinoma”.
In the case of [Cl][Cd][Cl], the outcome (Carcinogen: 3,2'-DIMETHYL-4-AMINOBIPHENYL, 13394-86-0, Doses [Carcinogen]: 50 MG/KG BW IN 0.5 ML CORN OIL 1/2 WK FOR 20 WK, Doses [Promoter]: 0, 10 UMOL/KG BW IN SALINE ONCE AT WK 20 (STUDY DURATION: 60 WK), Route [Carcinogen]: SUBCUTANEOUS, Route [Promoter]: INTRAMUSCULAR, Species: RAT, Strain/Sex: F344/MALE) is given as “ventral prostate: carcinoma” and the outcome (Carcinogen: 3,2'-DIMETHYL-4-AMINOBIPHENYL, 13394-86-0, Doses [Carcinogen]: 50 MG/KG BW IN 0.5 ML CORN OIL 1/2 WK FOR 20 WK, Doses [Promoter]: 0, 10 UMOL/KG BW IN SALINE ONCE AT WK 20 AND 0, 5 UMOL/KG BW ONCE AT WK 40 (STUDY DURATION: 60 WK), Doses [Promoter]: 0, 10 UMOL/KG BW IN SALINE ONCE AT WK 20 AND 0, 5 UMOL/KG BW ONCE AT WK 40 (STUDY DURATION: 60 WK), Route [Carcinogen]: SUBCUTANEOUS, Route [Promoter]: INTRAMUSCULAR, Species: RAT, Strain/Sex: F344/MALE) is given as “ventral prostate: carcinoma”.
